Active and inactive are the calls of the source. Rule as the data show it, for most assays here: actives have a measured EC50 and inactives only a lower limit.
Tests used:
[1] = Trypanosoma cruzi growth suppression in host cells – NIH3T3 host cells, beta-gal luminescence, confirmation (AID 2044); assay type: functional, cell-based;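 also: intracellular parasites grown in NIH/3T3 mouse fibroblasts as host cells; luminescent beta-galactosidase reporter signal from transgenic T. cruzi replicating inside host cells; inhibitors lower the luminescence signal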
[2] = NIH3T3 cell viability loss – ATP luminescence, mouse fibroblasts, counter-screen, dose response (AID 2010); assay type: functional, cell-based;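 also: cells exposed to compound for about 90 hours before reading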
Cytochrome P450 2C9 = Cytochrome P450 2C9 (Homo sapiens, UniProt P11712)
[3] = molecular target: T1, Corticotropin-releasing factor receptor 2/Corticotropin-releasing factor-binding protein (Homo sapiens, UniProt P24387+Q13324); assay: activators of CRF receptor 2 with binding protein – uHTS hits, confirmation (AID 602473); assay type: functional; details: read-out: EC50_Mean
T1 sequence (Q13324 whole entry): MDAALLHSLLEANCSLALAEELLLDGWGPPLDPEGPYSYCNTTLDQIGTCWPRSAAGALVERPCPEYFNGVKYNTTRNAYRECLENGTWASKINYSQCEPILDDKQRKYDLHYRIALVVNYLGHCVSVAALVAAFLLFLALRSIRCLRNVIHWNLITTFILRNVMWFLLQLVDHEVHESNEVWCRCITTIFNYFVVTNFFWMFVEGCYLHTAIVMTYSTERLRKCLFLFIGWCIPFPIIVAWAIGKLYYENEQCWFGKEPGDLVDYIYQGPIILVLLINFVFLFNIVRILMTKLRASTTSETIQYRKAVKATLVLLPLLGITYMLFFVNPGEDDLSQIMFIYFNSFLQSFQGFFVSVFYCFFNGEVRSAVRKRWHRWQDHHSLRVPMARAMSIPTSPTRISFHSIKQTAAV
T1 sequence (P24387 whole entry): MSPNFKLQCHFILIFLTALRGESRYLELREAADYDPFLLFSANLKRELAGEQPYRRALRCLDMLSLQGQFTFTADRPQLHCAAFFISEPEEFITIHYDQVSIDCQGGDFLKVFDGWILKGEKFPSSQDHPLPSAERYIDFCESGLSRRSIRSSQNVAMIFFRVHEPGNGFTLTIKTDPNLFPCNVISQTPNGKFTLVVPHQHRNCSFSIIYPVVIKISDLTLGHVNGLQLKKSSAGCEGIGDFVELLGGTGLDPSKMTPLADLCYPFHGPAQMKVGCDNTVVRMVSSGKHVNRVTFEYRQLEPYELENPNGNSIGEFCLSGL

[4] = Luminescence Cell-Based Dose Confirmation HTS to Identify Activators of 5'UTR Stem-Loop Driven Alpha-Synuclein mRNA Translation in H4 Neuroglioblastoma Cells. [Related pubchem assays: 1829 (Project Summary), 1814 (Primary HTS)]; assay type: functional
[5] = Luminescence Cell-Based Dose Response HTS to Identify Activators of Luciferase Translation or Activity in H4 […] Cells. [Related pubchem assays: 1829 (Project Summary), 1814 (Primary HTS)]; assay type: functional
H4 = assay: Luminescence Cell-Based Dose Response HTS to Identify Activators of 5'UTR Stem-Loop Driven Prion Protein mRNA Translation in H4 Neuroglioblastoma Cells. [Related pubchem assays: 1829 (Project Summary), 1814 (Primary HTS)]; assay type: functional; details: Homo sapiens

Cytochrome P450 2C9, sequence (P11712 whole entry): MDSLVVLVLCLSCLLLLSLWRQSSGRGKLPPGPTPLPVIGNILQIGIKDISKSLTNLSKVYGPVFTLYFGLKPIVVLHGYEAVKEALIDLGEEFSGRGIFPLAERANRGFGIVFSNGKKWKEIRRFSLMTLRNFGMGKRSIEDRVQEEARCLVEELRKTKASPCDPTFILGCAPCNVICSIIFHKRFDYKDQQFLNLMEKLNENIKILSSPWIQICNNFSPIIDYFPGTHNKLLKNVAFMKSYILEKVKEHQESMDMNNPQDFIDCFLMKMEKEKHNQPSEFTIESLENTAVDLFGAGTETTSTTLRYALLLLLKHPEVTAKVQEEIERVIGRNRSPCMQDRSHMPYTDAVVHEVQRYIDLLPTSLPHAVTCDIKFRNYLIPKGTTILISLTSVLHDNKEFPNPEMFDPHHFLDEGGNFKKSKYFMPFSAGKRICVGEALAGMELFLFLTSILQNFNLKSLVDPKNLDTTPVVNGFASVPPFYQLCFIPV

**Q.** Which results are given for Cc1cccc2nc(-c3ccccc3)nc(N3CCC(O)(c4ccc(Cl)cc4)CC3)c12?
**A.** EC50 [1]: 0.301 µM (active); EC50 [2]: > 60 µM (not active)

**Q.** For Cc1nc(S(=O)(=O)N(C)c2ccccc2)c(C#N)c(C)c1Cl, which AC50 (Cytochrome P450 2C9) is on record?
**A.** 17.8 µM (inconclusive)

**Q.** Which EC50 [1] does the source give for CCCCn1nc(C(=O)Nc2nc3c(s2)CCCC3)c2ccccc2c1=O here?
**A.** 1.73 µM (active)

**Q.** And the EC50 [2]?
**A.** > 60 µM (inconclusive)

**Q.** For CC1CCN(CC(=O)Nc2cccc([N+](=O)[O-])c2)CC1, which AC50 (Cytochrome P450 2C9) is on record?
**A.** 15.8 µM (inconclusive)

**Q.** With CS(=O)(=O)N(Cc1ccccc1)c1ccc(C(=O)N2CCOCC2)cc1 as the molecule, how does the EC50 [3] read?
**A.** > 53 µM (inactive)

**Q.** What does the source list for Cc1ccc(OCCn2cnc3ccccc3c2=O)c([N+](=O)[O-])c1?
**A.** EC50 [4]: 0.247 µM (active); EC50 [5]: 2.44 µM (active)

**Q.** Which AC50 (Cytochrome P450 2C9) does the source give for C=CCN=C(S)N1CCN(c2ncc3c(=O)c(C(=O)O)cn(CC)c3n2)CC1 here?
**A.** 0.224 µM (inconclusive)

**Q.** Which results are given for COc1ccc(C(=N)NOC(=O)c2c(-c3ccccc3Cl)noc2C)cc1OC?
**A.** EC50 [1]: 1.49 µM (active); EC50 [2]: 10.7 µM (active)

**Q.** With CCOC(=O)C1CCN(c2nnc(N3CCCC3=O)s2)CC1 as the molecule, how does the EC50 [4] read?
**A.** 3.42 µM (active)

**Q.** What about the EC50 [5] of the same molecule?
**A.** 6.58 µM (active)

**Q.** And the EC50 (H4)?
**A.** 33 µM (active)

**Q.** Which EC50 [1] does the source give for CCOC(=O)c1c(NC(=O)CSc2nnc(-c3ccncc3)n2Cc2ccco2)sc(C)c1C here?
**A.** 2.9 µM (active)

**Q.** What about the EC50 [2] of the same molecule?
**A.** > 60 µM (not active)

**Q.** With CN(CCNC(=O)C1CC(=O)N(c2ccc(F)c(Cl)c2)C1)Cc1ccccc1 (stereo not drawn) as the molecule, how does the EC50 [1] read?
**A.** 0.22 µM (active)

**Q.** And the EC50 [2]?
**A.** > 60 µM (not active)

**Q.** Which EC50 [5] does the source give for CC1CCC(=C(C#N)c2nc(-c3cc4ccccc4oc3=O)cs2)CC1 (stereo not drawn) here?
**A.** 0.106 µM (active)

**Q.** Which EC50 [1] does the source give for Cc1ccc(S(=O)(=O)Nc2ccc(N3CCN(C)CC3)nc2)cc1 here?
**A.** 1.26 µM (active)

**Q.** What about the EC50 [2] of the same molecule?
**A.** > 60 µM (not active)

**Q.** What does the source list for COc1ccc(-c2cc(-c3ccccc3)c(C#N)c(SCC(=O)Nc3ncc(C)s3)n2)cc1?
**A.** EC50 [1]: > 60 µM (not active); EC50 [2]: > 60 µM (inconclusive)

**Q.** What does the source list for Cc1ccc(N2CCN(c3ccc(C)cc3)C2c2cccnc2)cc1?
**A.** EC50 [1]: 0.768 µM (active); EC50 [2]: > 60 µM (not active)

**Q.** What does the source list for CC1(C)CC(=O)c2cc(NC=C(C(=O)c3ccccc3)C(=O)c3ccccc3)c(=O)oc2C1?
**A.** EC50 [4]: 15.6 µM (active); EC50 [5]: > 60 µM (not active); EC50 (H4): > 120 µM (not active)

**Q.** For Nn1c(CSc2ccccn2)nc2ccccc2c1=O, which EC50 [4] is on record?
**A.** 42.9 µM (active)

**Q.** And the EC50 [5]?
**A.** 35.2 µM (active)

**Q.** What about the EC50 (H4) of the same molecule?
**A.** 23.3 µM (active)

**Q.** For CN(C)c1ccc(-c2nccc(Nc3ccc(F)cc3)n2)cc1, which AC50 (Cytochrome P450 2C9) is on record?
**A.** 0.631 µM (inconclusive)

**Q.** Which EC50 [3] does the source give for Cc1cccc(CCN2CCN=C2Nc2ccccc2)c1 here?
**A.** 14 µM (active)

**Q.** For O=C(c1c[nH]cc1-c1ccccc1)c1cccc2ccccc12, which EC50 [1] is on record?
**A.** 1.93 µM (active)

**Q.** And the EC50 [2]?
**A.** 4.49 µM (active)

**Q.** What does the source list for COc1ccc(C(CNc2ccc(S(=O)(=O)N3CCCC3)cc2[N+](=O)[O-])N2CCCC2)cc1 (stereo not drawn)?
**A.** EC50 [1]: 0.843 µM (active); EC50 [2]: 31.8 µM (active)

**Q.** With CC(C)CC(=O)Nc1ccc(C(=O)COC(=O)Cc2n[nH]c(=O)c3ccccc23)cc1 as the molecule, how does the EC50 [3] read?
**A.** 12.4 µM (active)

**Q.** What does the source list for O=C(CCN1C(=O)S/C(=C\C=C\c2ccccc2)C1=O)Nc1ccc(O)cc1?
**A.** EC50 [5]: 0.155 µM (active); EC50 (H4): 8.5 µM (active)

**Q.** With S=C(NCc1ccco1)N1CCN(Cc2ccco2)CC1 as the molecule, how does the AC50 (Cytochrome P450 2C9) read?
**A.** 14.1 µM (inconclusive)

**Q.** For CCN(CC)c1nc(C=Cc2ccc(N(C)C)cc2)c2nccnc2n1, which EC50 [3] is on record?
**A.** 2.56 µM (active)

**Q.** With O=C(COc1ccc(F)cc1)N(Cc1cccs1)C1CCS(=O)(=O)C1 (stereo not drawn) as the molecule, how does the EC50 [3] read?
**A.** > 53 µM (inactive)

**Q.** What does the source list for C/C(=N\NC(=S)Nc1cccc(C)c1)c1ccco1?
**A.** EC50 [1]: 2.8 µM (active); EC50 [2]: > 60 µM (not active)

**Q.** With COc1ccc(-c2c/c(=N/c3c(C)n(C)n(-c4ccccc4)c3=O)c3ccccc3o2)cc1 as the molecule, how does the EC50 [4] read?
**A.** 11.1 µM (active)

**Q.** What about the EC50 [5] of the same molecule?
**A.** 11.1 µM (active)

**Q.** And the EC50 (H4)?
**A.** 2.02 µM (active)

**Q.** For COc1ccc(/C=C(\NC(=O)c2ccccc2)C(=O)N/N=C/c2ccncc2)cc1, which AC50 (Cytochrome P450 2C9) is on record?
**A.** 12.6 µM (active)

**Q.** Which EC50 [4] does the source give for CC(=N)/C(C#N)=C(/O)CSc1nnc(Nc2cccc(C)c2)s1 here?
**A.** 10.1 µM (active)

**Q.** What about the EC50 [5] of the same molecule?
**A.** 45.1 µM (active)

**Q.** What about the EC50 (H4) of the same molecule?
**A.** > 120 µM (not active)
